What was measured:
[1] = test system: RAW 264.7 cells (LPS-induced TLR4 signaling); test: Cytokine secretion (ELISA) in LPS-treated RAW 264.7 cells; format: cell-based, mouse; details: TIP1 and LPS
Protocol: RAW 264.7 cells, THP1 cells, and mBMDM cells were dispensed into 96-well plates to a cell number of 2×10^5 cells/well, or into 24-well plates to a cell number of 5×10^5 cells/well. Incubation was performed overnight. Subsequently, combined treatment with TIP1 and LPS was performed. After 24 hours, secretion levels of IFN-β, IL-6, and TNF-α were measured using a […] (BioLegend), Mouse IL-6 Platinum ELISA (eBiosciences), and a Mouse TNF alpha ELISA Ready SET-Go! kit (eBiosciences). Absorbance was measured at 450 nm using a microplate reader spectrophotometer (Molecular Devices), and the results were analyzed using Softmax Pro 5.3 software (Molecular Devices Inc.).
TNF-α, IL-6, IFN-β levels in the culture supernatant of RAW 264.7 cells were measured using mouse TNF-α, IL-6, IFN-β Ready-SET-Go! ELISA kits according to the method described in Example 2-5. The results are illustrated in FIGS. 4(a)-4(c).

[2] = test system: mBMDM cells (Poly(I:C)-induced); test: Poly(I:C)-induced IFN-β generation in mBMDM cells; format: cell-based, mouse
TLR9 = molecular target: T1, TLR9 (Mus musculus, UniProt Q9EQU3); test: TNF-α secretion in RAW 264.7 cells with CpG-ODN; format: cell-based
T1 construct: host or cells: RAW 264.7
T1 sequence (Q9EQU3 26-1032): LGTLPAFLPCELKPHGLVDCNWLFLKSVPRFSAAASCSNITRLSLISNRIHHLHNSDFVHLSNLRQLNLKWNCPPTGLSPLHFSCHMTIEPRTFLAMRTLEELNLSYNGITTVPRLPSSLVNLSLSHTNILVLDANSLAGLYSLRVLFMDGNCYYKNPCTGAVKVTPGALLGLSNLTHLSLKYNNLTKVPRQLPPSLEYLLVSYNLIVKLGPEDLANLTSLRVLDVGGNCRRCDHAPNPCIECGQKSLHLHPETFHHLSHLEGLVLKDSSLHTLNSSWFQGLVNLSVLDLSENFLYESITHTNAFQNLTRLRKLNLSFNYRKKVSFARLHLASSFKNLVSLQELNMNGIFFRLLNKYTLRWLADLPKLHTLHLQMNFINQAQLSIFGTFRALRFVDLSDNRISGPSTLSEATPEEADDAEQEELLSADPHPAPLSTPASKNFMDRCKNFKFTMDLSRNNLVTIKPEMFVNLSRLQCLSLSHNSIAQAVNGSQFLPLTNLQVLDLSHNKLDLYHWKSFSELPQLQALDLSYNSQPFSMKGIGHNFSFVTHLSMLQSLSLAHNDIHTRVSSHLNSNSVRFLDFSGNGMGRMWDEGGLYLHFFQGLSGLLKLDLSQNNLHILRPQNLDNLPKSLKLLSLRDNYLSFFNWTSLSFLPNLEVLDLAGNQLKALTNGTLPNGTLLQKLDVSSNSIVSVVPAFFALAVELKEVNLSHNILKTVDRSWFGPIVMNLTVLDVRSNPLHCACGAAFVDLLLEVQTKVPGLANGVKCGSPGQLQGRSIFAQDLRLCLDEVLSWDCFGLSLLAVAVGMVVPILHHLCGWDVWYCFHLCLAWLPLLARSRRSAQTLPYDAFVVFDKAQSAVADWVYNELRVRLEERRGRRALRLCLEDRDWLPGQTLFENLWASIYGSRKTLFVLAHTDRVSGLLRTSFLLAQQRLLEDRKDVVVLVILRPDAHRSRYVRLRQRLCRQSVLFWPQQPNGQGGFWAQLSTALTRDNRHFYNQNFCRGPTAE

TLR3 = molecular target: T2, TLR3 (Mus musculus, UniProt Q99MB1); test: TNF-α and IFN-β secretion in RAW 264.7 cells with Poly(I:C); format: cell-based
T2 construct: host or cells: RAW 264.7
T2 sequence (Q99MB1 26-905): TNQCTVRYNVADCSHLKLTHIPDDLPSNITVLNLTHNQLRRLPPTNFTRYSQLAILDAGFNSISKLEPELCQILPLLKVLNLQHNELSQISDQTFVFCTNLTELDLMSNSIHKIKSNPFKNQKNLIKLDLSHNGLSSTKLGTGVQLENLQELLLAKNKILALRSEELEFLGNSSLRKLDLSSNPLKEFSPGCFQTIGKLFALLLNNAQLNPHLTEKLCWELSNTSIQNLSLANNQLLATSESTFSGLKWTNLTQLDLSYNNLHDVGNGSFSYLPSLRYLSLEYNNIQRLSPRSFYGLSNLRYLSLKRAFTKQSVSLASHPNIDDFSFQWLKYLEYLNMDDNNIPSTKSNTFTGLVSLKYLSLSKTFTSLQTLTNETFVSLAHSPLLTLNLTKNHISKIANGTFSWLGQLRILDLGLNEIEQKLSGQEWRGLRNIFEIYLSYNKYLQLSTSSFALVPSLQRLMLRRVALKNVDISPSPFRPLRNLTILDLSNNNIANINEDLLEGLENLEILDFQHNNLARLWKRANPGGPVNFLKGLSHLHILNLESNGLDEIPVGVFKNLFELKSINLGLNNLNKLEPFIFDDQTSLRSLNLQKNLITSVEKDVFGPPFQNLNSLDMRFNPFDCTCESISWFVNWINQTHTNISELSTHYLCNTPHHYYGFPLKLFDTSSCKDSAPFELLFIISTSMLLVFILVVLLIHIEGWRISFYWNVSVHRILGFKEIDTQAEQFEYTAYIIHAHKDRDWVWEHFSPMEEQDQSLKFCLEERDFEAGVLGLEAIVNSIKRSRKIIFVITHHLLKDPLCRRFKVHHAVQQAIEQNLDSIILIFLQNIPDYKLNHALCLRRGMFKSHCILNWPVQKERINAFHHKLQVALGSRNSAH

RQIKIWFQNRRMKWKKSHCRVLLI (TIP1)
secretion of IFN-β [1]: decreased in a concentration-dependent manner | secretion of IL-6 [1]: decreased in a concentration-dependent manner | secretion of TNF-α [1]: decreased in a concentration-dependent manner | Poly(I:C)-induced generation of IFN-β [2]: inhibited | secretion level of TNF-α (TLR9): decreased | secretion level of TNF-α (TLR3; Poly(I:C) (TLR3)): decreased | decrease of TNF-α secretion (inhibitory effect on TLR3 signaling) (TLR3; Poly(I:C), at 50 μM): 92% | secretion level of IFN-β (TLR3; TIP1 together with Poly(I:C), ELISA): decreased

From patent publication US11352399B2, “Peptide for toll-like receptor (TLR) inhibition and pharmaceutical composition comprising same” (GENESEN CO., LTD., priority 2017, dated 2022)
